Reference: ChEMBL document CHEMBL4043145, “Pyridine-pyrimidine amides that prevent HGF-induced epithelial scattering by two distinct mechanisms” (Bioorg Med Chem Lett, 2017)

Key:
[1] = system: PC-3; assay: Cell cycle arrest in human p53-null PC3 cells assessed as accumulation at S phase at 100 nM (reference value: 29.08 to 29.33%); type: functional
[2] = system: MCF7; assay: Cell cycle arrest in human MCF7 cells assessed as accumulation at S phase at 1000 nM (reference value: 25.36 to 26.82%); type: functional
[3] = system: MFE-280; assay: Cell cycle arrest in human MFE280 cells assessed as accumulation at G2/M phase at 300 nM (reference value: 16.43 to 17.9%); type: functional
[4] = system: MFE-280; assay: Cell cycle arrest in human MFE280 cells assessed as accumulation at S phase at 1000 nM (reference value: 14.14 to 15.66%); type: functional
[5] = system: A2780; assay: Cell cycle arrest in human A2780 cells assessed as accumulation at S phase at 100 nM (reference value: 21.16 to 22.81%); type: functional
[6] = system: MFE-296; assay: Cell cycle arrest in human MFE296 cells assessed as accumulation at S phase at 1000 nM (reference value: 16.96 to 19.19%); type: functional
[7] = system: MFE-296; assay: Cell cycle arrest in human MFE296 cells assessed as accumulation at S phase at 100 nM (reference value: 16.96 to 19.19%); type: functional
[8] = system: MFE-296; assay: Cell cycle arrest in human MFE296 cells assessed as accumulation at G2/M phase at 300 nM (reference value: 15.71 to 17.04%); type: functional
[9] = Inhibition of bovine brain tubulin polymerization; parameters: species or system Bos taurus
[10] = system: MCF7; assay: Cell cycle arrest in human MCF7 cells assessed as accumulation at G2/M phase at 300 nM (reference value: 20.06 to 22.33%); type: functional
[11] = system: PC-3; assay: Cell cycle arrest in human p53-null PC3 cells assessed as accumulation at S phase at 300 nM (reference value: 29.08 to 29.33%); type: functional
[12] = system: MCF7; assay: Cell cycle arrest in human MCF7 cells assessed as accumulation at G2/M phase at 100 nM (reference value: 20.06 to 22.33%); type: functional
[13] = system: MFE-280; assay: Induction of apoptosis in human MFE280 cells assessed as early apoptotic cells at 100 nM by 7-AAD/Annexin staining-based assay (reference value: 5.1 to 6.2%); type: functional
[14] = system: MFE-296; assay: Cell cycle arrest in human MFE296 cells assessed as accumulation at G1 phase at 1000 nM (reference value: 61.05 to 64.87%); type: functional
[15] = system: MFE-280; assay: Induction of apoptosis in human MFE280 cells assessed as early apoptotic cells at 300 nM by 7-AAD/Annexin staining-based assay (reference value: 5.1 to 6.2%); type: functional
[16] = system: MFE-280; assay: Cell cycle arrest in human MFE280 cells assessed as accumulation at G2/M phase at 100 nM (reference value: 16.43 to 17.9%); type: functional
[17] = system: MFE-280; assay: Cell cycle arrest in human MFE280 cells assessed as accumulation at G1 phase at 100 nM (reference value: 64.99 to 67.86%); type: functional
[18] = system: MFE-280; assay: Induction of apoptosis in human MFE280 cells assessed as late apoptotic cells at 100 nM by 7-AAD/Annexin staining-based assay (reference value: 6 to 7.4%); type: functional

IC50 [9]: 1.45 µM
SMILES: O=C(Nc1ccc(-c2cccc(Cl)c2)cn1)c1cncnc1
Activity [1]: 22.12%
Activity [2]: 16.61%
Activity [3]: 37.86%
Activity [4]: 18.57%
Activity [5]: 18.92%
Activity [6]: 18.15%
Activity [7]: 21.05%
Activity [8]: 55.89%
Activity [10]: 32.59%
Activity [11]: 22.85%
Activity [12]: 26.95%
Activity [13]: 4.9%
Activity [14]: 8.62%
Activity [15]: 5.4%
Activity [16]: 18.95%
Activity [17]: 61.48%
Activity [18]: 8.3%
